Measured values published in PMC6792352, “Limited Chemical Structural Diversity Found to Modulate Thyroid Hormone Receptor in the Tox21 Chemical Library” (Environmental Health Perspectives, 2019).
Structures can show the parent of a compound that is named as a salt.

assay: in vitro; settings: rat, gh3-tre-luc cells, AC50 (uM) modified / 1000

Compound	CC50 at 24 h
CO/N=C(\C(=O)N[C@@H]1C(=O)N2C(C(=O)O)=C(CSc3nc(=O)c(=O)[nH]n3C)CS[C@H]12)c1csc(N)n1 [Ceftriaxone disodium trihydrate]	> 50 µM
CO/N=C(\C(=O)N[C@@H]1C(=O)N2C(C(=O)O)=C(COC(N)=O)CS[C@H]12)c1ccco1 [Cefuroxime]	> 90 µM
CO/N=C(\C(=O)N[C@@H]1C(=O)N2C(C(=O)O)=C(CSc3cnns3)CS[C@H]12)c1csc(N)n1 [Cefuzonam hydrochloride]	> 50 µM
CCN(CC)C(=O)Nc1ccc(OCC(O)CNC(C)(C)C)c(C(C)=O)c1 (stereo not shown) [Celiprolol hydrochloride]	> 50 µM
OC[C@H]1O[C@@H](O[C@H]2[C@H](O)[C@@H](O)C(O)O[C@@H]2CO)[C@H](O)[C@@H](O)[C@@H]1O (stereo partly shown) [Cellobiose]	> 50 µM
CC(=O)OC[C@H]1O[C@@H](O[C@H]2[C@H](O)[C@@H](OC(=O)c3ccccc3C(=O)O)[C@H](O)O[C@@H]2COC(C)=O)[C@H](O)[C@@H](OC(=O)c2ccccc2C(=O)O)[C@@H]1O [Cellulose acetate phthalate]	> 50 µM
O=C(Cc1cccs1)N[C@@H]1C(=O)N2C(C(=O)[O-])=C(C[n+]3ccccc3)CS[C@H]12 [Cephaloridine]	> 50 µM
CC(=O)OCC1=C(C(=O)O)N2C(=O)[C@@H](NC(=O)Cc3cccs3)[C@H]2SC1 [Cephalothin]	> 50 µM
CC(=O)OCC1=C(C(=O)O)N2C(=O)[C@@H](NC(=O)CSc3ccncc3)[C@H]2SC1 [Cephapirin sodium]	> 50 µM
COc1ccc2cc1Oc1ccc(cc1)C[C@H]1c3c(cc4c(c3Oc3cc5c(cc3OC)CCN(C)[C@@H]5C2)OCO4)CCN1C [Cepharanthine]	12.3 µM
CC1=C(C(=O)O)N2C(=O)[C@@H](NC(=O)[C@H](N)C3=CCC=CC3)[C@H]2SC1 [Cephradine]	> 50 µM
COCc1c(C(C)C)nc(C(C)C)c(/C=C/[C@@H](O)C[C@@H](O)CC(=O)O)c1-c1ccc(F)cc1 [Cerivastatin sodium]	> 50 µM
NC(=O)COCCN1CCN(C(c2ccccc2)c2ccc(Cl)cc2)CC1 (stereo not shown) [Cetirizine amide dihydrochloride]	21.7 µM
NC[C@H]1CC[C@H](C(=O)Oc2ccc(CCC(=O)O)cc2)CC1 [Cetraxate hydrochloride]	> 50 µM
O=C(CCCCCCCCCCCCC1CCCC1)Nc1ccc(S(=O)(=O)c2ccc(NC(=O)CCCCCCCCCCCCC3CCCC3)cc2)cc1 [Chaulmosulfone]	> 50 µM
CN(C)CCC(O)(c1ccccc1)c1ccccc1Cl (stereo not shown) [Chlophedianol]	26 µM
CCN(CC)CCC(=O)N1c2ccccc2Sc2ccc(Cl)cc21 [Chloracizine]	23.2 µM
Nc1cc(Cl)cc(C(=O)O)c1Cl [Chloramben]	> 90 µM
O=C(O)CCCc1ccc(N(CCCl)CCCl)cc1 [Chlorambucil]	61 µM
Cc1ccc(S(=O)(=O)NCl)cc1 [Chloramine T hydrate (1:x)]	> 80 µM
CCCCCCCCCCCCCCCC(=O)OC[C@@H](NC(=O)C(Cl)Cl)[C@H](O)c1ccc([N+](=O)[O-])cc1 [Chloramphenicol palmitate]	> 50 µM
O=C(O)CCC(=O)OC[C@@H](NC(=O)C(Cl)Cl)[C@H](O)c1ccc([N+](=O)[O-])cc1 [Chloramphenicol sodium succinate]	> 50 µM
O=C(N[C@H](CO)[C@H](O)c1ccc([N+](=O)[O-])cc1)C(Cl)Cl [Chloramphenicol]	> 90 µM
C=C(C)C(=O)Nc1ccc(Cl)c(Cl)c1 [Chloranocryl]	> 90 µM

Compound	CC50 at 24 h
Nc1ncnc(Nc2ccc(Cl)cc2)n1 [Chlorazanil]	> 50 µM
CN1CCN(C(c2ccccc2)c2ccc(Cl)cc2)CC1 (stereo not shown) [Chlorcyclizine hydrochloride]	4.39 µM
O=C(O)C1C(C(=O)O)[C@@]2(Cl)C(Cl)=C(Cl)[C@]1(Cl)C2(Cl)Cl (stereo partly shown) [Chlorendic acid]	> 90 µM
O=C1OC(=O)C2C1C1(Cl)C(Cl)=C(Cl)C2(Cl)C1(Cl)Cl (stereo not shown) [Chlorendic anhydride]	> 90 µM
O=C(O)Cc1c(Cl)ccc(Cl)c1Cl [Chlorfenac]	> 90 µM
CCOCn1c(-c2ccc(Cl)cc2)c(C#N)c(Br)c1C(F)(F)F [Chlorfenapyr]	2.15 µM
CC(O)(c1ccc(Cl)cc1)c1ccc(Cl)cc1 [Chlorfenethol]	76.2 µM
O=S(=O)(Oc1ccc(Cl)cc1)c1ccc(Cl)cc1 [Chlorfenson]	> 90 µM
O=C(NC(=O)c1c(F)cccc1F)Nc1cc(Cl)c(Oc2ncc(C(F)(F)F)cc2Cl)c(Cl)c1 [Chlorfluazuron]	71.4 µM
Nc1cnn(-c2ccccc2)c(=O)c1Cl [Chloridazon]	> 90 µM
Oc1ccc(Cl)c2c1CCC2 [Chlorindanol]	> 50 µM
C[N+](C)(C)CC[N+]1(C)Cc2c(Cl)c(Cl)c(Cl)c(Cl)c2C1 [Chlorisondamine chloride]	> 50 µM
CC(=O)O[C@]1(C(C)=O)CC[C@H]2[C@@H]3C=C(Cl)C4=CC(=O)CC[C@]4(C)[C@H]3CC[C@@]21C [Chlormadinone acetate]	90.1 µM
CC(=O)[C@@]1(O)CC[C@H]2[C@@H]3C=C(Cl)C4=CC(=O)CC[C@]4(C)[C@H]3CC[C@@]21C [Chlormadinone]	> 50 µM
CN1C(=O)CCS(=O)(=O)C1c1ccc(Cl)cc1 (stereo not shown) [Chlormezanone]	> 90 µM
Cc1nc2ccccc2n1Cc1ccc(Cl)cc1 [Chlormidazole]	> 50 µM
C[Si](Cl)(c1ccccc1)c1ccccc1 [Chloro(methyl)diphenylsilane]	> 90 µM
O=CCCl [Chloroacetaldehyde]	> 90 µM
N#CCCl [Chloroacetonitrile]	> 100 µM
O=C(Cl)CCl [Chloroacetyl chloride]	> 90 µM
Cl/C=C\C[N+]12CN3CN(CN(C3)C1)C2 [Chloroallyl methenamine chloride]	> 90 µM
Clc1ccccc1 [Chlorobenzene]	> 90 µM
O=C(O)CC(Cl)C(=O)O (stereo not shown) [Chlorobutanedioic acid]	> 90 µM

same assay, conditions: rat, gh3-tre-luc cells, AC50 (uM) modified / 1000, Tox21_110001=Tox21_111567; viability, 1 nM T3 present, 24 h

Compound	CC50 at 24 h
CNC1=Nc2ccc(Cl)cc2C(c2ccccc2)=[N+]([O-])C1 [Chlordiazepoxide]	> 50 µM

same assay, conditions: rat, gh3-tre-luc cells, AC50 (uM) modified / 1000, Tox21_110001=Tox21_111614; viability, 1 nM T3 present, 24 h

Compound	CC50 at 24 h
OC(O)C(Cl)(Cl)Cl [Chloral hydrate]	> 50 µM

same assay, conditions: rat, gh3-tre-luc cells, AC50 (uM) modified / 1000, Tox21_110001=Tox21_111708; viability, 1 nM T3 present, 24 h

Compound	CC50 at 24 h
OC[C@@H](O)[C@H]1O[C@@H]2O[C@H](C(Cl)(Cl)Cl)O[C@@H]2[C@H]1O [Chloralose]	> 50 µM

same assay, conditions: rat, gh3-tre-luc cells, AC50 (uM) modified / 1000, Tox21_110001=Tox21_112069; viability, 1 nM T3 present, 24 h

Compound	CC50 at 24 h
CCOP(=O)(OCC)O/C(=C\Cl)c1ccc(Cl)cc1Cl [Chlorfenvinphos]	> 50 µM

same assay, conditions: rat, gh3-tre-luc cells, AC50 (uM) modified / 1000, Tox21_110001=Tox21_200065; viability, 1 nM T3 present, 24 h

Compound	CC50 at 24 h
C[N+](C)(C)CCCl [Chlormequat chloride]	> 90 µM

same assay, conditions: rat, gh3-tre-luc cells, AC50 (uM) modified / 1000, Tox21_110001=Tox21_200110; viability, 1 nM T3 present, 24 h

Compound	CC50 at 24 h
OC(O)C(Cl)(Cl)Cl [Chloral hydrate]	> 90 µM

same assay, conditions: rat, gh3-tre-luc cells, AC50 (uM) modified / 1000, Tox21_110001=Tox21_200153; viability, 1 nM T3 present, 24 h

Compound	CC50 at 24 h
ClC(Br)Br [Chlorodibromomethane]	> 90 µM

same assay, conditions: rat, gh3-tre-luc cells, AC50 (uM) modified / 1000, Tox21_110001=Tox21_201114; viability, 1 nM T3 present, 24 h

Compound	CC50 at 24 h
O=C(O)CCl [Chloroacetic acid]	> 90 µM

same assay, conditions: rat, gh3-tre-luc cells, AC50 (uM) modified / 1000, Tox21_110001=Tox21_201447; viability, 1 nM T3 present, 24 h

Compound	CC50 at 24 h
OC[C@@H](O)[C@H]1O[C@@H]2O[C@H](C(Cl)(Cl)Cl)O[C@@H]2[C@H]1O [Chloralose]	> 90 µM

same assay, conditions: rat, gh3-tre-luc cells, AC50 (uM) modified / 1000, Tox21_110001=Tox21_201656; viability, 1 nM T3 present, 24 h

Compound	CC50 at 24 h
O=C1C(Cl)=C(Cl)C(=O)C(Cl)=C1Cl [Chloranil]	12.7 µM

same assay, conditions: rat, gh3-tre-luc cells, AC50 (uM) modified / 1000, Tox21_110001=Tox21_201753; viability, 1 nM T3 present, 24 h

Compound	CC50 at 24 h
CCOC(=O)C(O)(c1ccc(Cl)cc1)c1ccc(Cl)cc1 [Chlorobenzilate]	58.2 µM

same assay, conditions: rat, gh3-tre-luc cells, AC50 (uM) modified / 1000, Tox21_110001=Tox21_300586; viability, 1 nM T3 present, 24 h

Compound	CC50 at 24 h
ClC1=C(Cl)[C@]2(Cl)C3C(Cl)C(Cl)CC3[C@@]1(Cl)C2(Cl)Cl (stereo partly shown) [Chlordane]	25.5 µM

same assay, conditions: rat, gh3-tre-luc cells, AC50 (uM) modified / 1000, Tox21_110001=Tox21_300594; viability, 1 nM T3 present, 24 h

Compound	CC50 at 24 h
CCOC(=O)C(O)(c1ccc(Cl)cc1)c1ccc(Cl)cc1 [Chlorobenzilate]	54.6 µM

same assay, conditions: rat, gh3-tre-luc cells, AC50 (uM) modified / 1000, Tox21_110001=Tox21_300793; viability, 1 nM T3 present, 24 h

Compound	CC50 at 24 h
CON(C)C(=O)Nc1ccc(Br)c(Cl)c1 [Chlorbromuron]	> 90 µM

same assay, conditions: rat, gh3-tre-luc cells, AC50 (uM) modified / 1000, Tox21_110001=Tox21_301412; viability, 1 nM T3 present, 24 h

Compound	CC50 at 24 h
Cc1cc(Cl)ccc1N=CN(C)C [Chlordimeform hydrochloride]	> 90 µM

same assay, conditions: rat, gh3-tre-luc cells, AC50 (uM) modified / 1000, Tox21_110001=Tox21_301573; viability, 1 nM T3 present, 24 h

Compound	CC50 at 24 h
CCOP(=O)(OCC)O/C(=C\Cl)c1ccc(Cl)cc1Cl [Chlorfenvinphos]	> 90 µM

same assay, conditions: rat, gh3-tre-luc cells, AC50 (uM) modified / 1000, Tox21_110001=Tox21_303021; viability, 1 nM T3 present, 24 h

Compound	CC50 at 24 h
O=C1C(Cl)=C(Cl)C(=O)C(Cl)=C1Cl [Chloranil]	20.3 µM
